Data reported in patent US12466827B2, “1,3,4-oxadiazole derivative compounds as histone deacetylase 6 inhibitor, and the pharmaceutical composition comprising the same” (CHONG KUN DANG PHARMACEUTICAL CORP., priority 2020, dated 2025).

Experiments:
[1] = target: T1, human recombinant HDAC1 (Homo sapiens, UniProt Q13547); assay: In vitro HDAC enzyme activity inhibition assay (HDAC1); type: biochemical; conditions: Fluor de Lys-SIRT1 substrate 10 μM, 30° C., 60 minutes, fluorescence
T1 construct: purchased Enzo Life Sciences, Inc. BML-SE456
In short: (§1)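 Fluorimetric deacetylase kit: human recombinant HDAC1 or HDAC6 (0.3 μg) with 10 μM Fluor de Lys-SIRT1 substrate and 5-fold diluted compounds, 60 min at 30° C. Developer added for 30 min, fluorescence read at Ex 360/Em 460, IC50 calculated.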

[2] = target: T2, human recombinant HDAC6 (Homo sapiens, UniProt Q9UBN7); assay: In vitro HDAC enzyme activity inhibition assay (HDAC6); type: biochemical; conditions: for HDAC6 selectivity (fold): HDAC6 over HDAC1; for IC50: same protocol as the HDAC1 test, human recombinant HDAC6 (Calbiochem)
T2 construct: purchased Calbiochem Inc. 382180
T2 sequence (Q9UBN7 1-1215): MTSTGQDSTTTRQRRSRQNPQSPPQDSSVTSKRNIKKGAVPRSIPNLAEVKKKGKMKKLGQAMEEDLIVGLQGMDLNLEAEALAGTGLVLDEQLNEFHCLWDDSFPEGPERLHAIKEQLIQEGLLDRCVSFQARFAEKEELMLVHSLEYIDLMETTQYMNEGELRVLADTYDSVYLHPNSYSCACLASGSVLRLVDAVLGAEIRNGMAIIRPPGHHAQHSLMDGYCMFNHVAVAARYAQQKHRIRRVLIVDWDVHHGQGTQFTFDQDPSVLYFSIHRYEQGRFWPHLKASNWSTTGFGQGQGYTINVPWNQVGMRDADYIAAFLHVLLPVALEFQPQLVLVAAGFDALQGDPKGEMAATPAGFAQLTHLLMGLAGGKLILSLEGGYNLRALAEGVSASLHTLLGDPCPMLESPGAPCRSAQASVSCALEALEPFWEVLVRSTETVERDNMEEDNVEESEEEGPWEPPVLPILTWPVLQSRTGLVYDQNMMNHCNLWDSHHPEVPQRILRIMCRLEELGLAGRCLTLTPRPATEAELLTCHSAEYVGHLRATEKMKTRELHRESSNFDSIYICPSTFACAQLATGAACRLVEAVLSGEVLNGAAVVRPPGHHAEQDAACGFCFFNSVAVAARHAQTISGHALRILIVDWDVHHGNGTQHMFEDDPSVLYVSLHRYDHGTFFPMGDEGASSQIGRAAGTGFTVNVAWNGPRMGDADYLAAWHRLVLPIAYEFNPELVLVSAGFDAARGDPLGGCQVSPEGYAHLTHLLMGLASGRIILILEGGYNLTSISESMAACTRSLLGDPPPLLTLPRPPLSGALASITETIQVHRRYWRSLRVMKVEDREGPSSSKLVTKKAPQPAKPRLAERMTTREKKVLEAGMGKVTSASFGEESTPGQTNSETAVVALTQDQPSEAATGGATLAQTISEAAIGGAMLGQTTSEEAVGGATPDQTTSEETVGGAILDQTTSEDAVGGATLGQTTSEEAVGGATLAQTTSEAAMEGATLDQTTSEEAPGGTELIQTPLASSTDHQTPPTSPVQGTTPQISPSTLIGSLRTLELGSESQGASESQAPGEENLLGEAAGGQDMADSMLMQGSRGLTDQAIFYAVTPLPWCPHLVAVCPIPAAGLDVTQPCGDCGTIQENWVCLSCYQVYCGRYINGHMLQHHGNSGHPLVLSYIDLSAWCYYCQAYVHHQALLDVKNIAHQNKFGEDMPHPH
In short: as §1

T1 sequence (Q13547 whole entry): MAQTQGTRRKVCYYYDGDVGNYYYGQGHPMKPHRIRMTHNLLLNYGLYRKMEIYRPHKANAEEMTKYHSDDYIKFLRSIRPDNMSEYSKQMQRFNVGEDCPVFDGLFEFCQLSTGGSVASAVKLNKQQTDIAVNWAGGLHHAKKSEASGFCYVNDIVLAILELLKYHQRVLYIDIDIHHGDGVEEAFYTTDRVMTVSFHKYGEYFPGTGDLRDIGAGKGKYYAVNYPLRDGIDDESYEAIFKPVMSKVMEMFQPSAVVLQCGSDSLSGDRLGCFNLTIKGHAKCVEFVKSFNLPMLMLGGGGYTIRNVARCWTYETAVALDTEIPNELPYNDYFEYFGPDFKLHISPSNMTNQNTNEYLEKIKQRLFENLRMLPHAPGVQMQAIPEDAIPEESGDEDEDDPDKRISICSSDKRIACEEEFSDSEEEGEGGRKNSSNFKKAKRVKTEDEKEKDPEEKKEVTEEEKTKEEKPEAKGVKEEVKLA

IC50 [1] [µM] | HDAC6 selectivity (fold) [2] [fold] | IC50 [2] [nM] | SMILES
> 50 | 681 | 73.4 | O=C(C1COC1)N1CCN(S(=O)(=O)N(Cc2cn3ccc(-c4nnc(C(F)F)o4)cc3n2)c2cccc(F)c2)CC1 [Compound 4310, N-((7-(5-(difluoromethyl)-1,3,4-oxadiazol-2-yl)imidazo[1,2-a]pyridin-2-yl)methyl)-N-(3-fluorophenyl)-4-(oxetane-3-carbonyl)piperazine-1-sulfonamide]
> 50 | 510 | 98 | O=C(N1CCN(S(=O)(=O)N(Cc2cn3ccc(-c4nnc(C(F)F)o4)cc3n2)c2cccc(F)c2)CC1)C(F)(F)F [Compound 4311, N-((7-(5-(difluoromethyl)-1,3,4-oxadiazol-2-yl)imidazo[1,2-a]pyridin-2-yl)methyl)-N-(3-fluorophenyl)-4-(2,2,2-trifluoroacetyl)piperazine-1-sulfonamide]
> 50 | 530 | 94.3 | CS(=O)(=O)N1CCN(S(=O)(=O)N(Cc2cn3ccc(-c4nnc(C(F)F)o4)cc3n2)c2cccc(F)c2)CC1 [Compound 4312, N-((7-(5-(difluoromethyl)-1,3,4-oxadiazol-2-yl)imidazo[1,2-a]pyridin-2-yl)methyl)-N-(3-fluorophenyl)-4-(methylsulfonyl)piperazine-1-sulfonamide]
> 50 | 371 | 135 | COC(=O)N1CCN(S(=O)(=O)N(Cc2cn3ccc(-c4nnc(C(F)F)o4)cc3n2)c2cccc(F)c2)CC1 [Compound 4313, methyl 4-(N-((7-(5-(difluoromethyl)-1,3,4-oxadiazol-2-yl)imidazo[1,2-a]pyridin-2-yl)methyl)-N-(3-fluorophenyl)sulfamoyl)piperazine-1-carboxylate]
> 50 | 462 | 108 | CN(C)C(=O)N1CCN(S(=O)(=O)N(Cc2cn3ccc(-c4nnc(C(F)F)o4)cc3n2)c2cccc(F)c2)CC1 [Compound 4314, 4—(N-((7-(5-(difluoromethyl)-1,3,4-oxadiazol-2-yl)imidazo[1,2-a]pyridin-2-yl)methyl)-N-(3-fluorophenyl)sulfamoyl)-N, N-dimethylpiperazine-1-carboxamide]
> 50 | 309 | 162 | O=S(=O)(N1CCN(c2ncccn2)CC1)N(Cc1cn2ccc(-c3nnc(C(F)F)o3)cc2n1)c1cccc(F)c1 [Compound 4315, N-((7-(5-(difluoromethyl)-1,3,4-oxadiazol-2-yl)imidazo[1,2-a]pyridin-2-yl)methyl)-N-(3-fluorophenyl)-4-(pyrimidin-2-yl)piperazine-1-sulfonamide]
> 50 | 243 | 205 | O=S(=O)(C1CCN(C2CC3(CCC3)C2)CC1)N(Cc1cn2ccc(-c3nnc(C(F)F)o3)cc2n1)c1cccc(F)c1 [Compound 4616, N-((7-(5-(difluoromethyl)-1,3,4-oxadiazol-2-yl)imidazo[1,2-a]pyridin-2-yl)methyl)-N-(3-fluorophenyl)-1-(spiro[3.3]heptan-2-yl)piperidine-4-sulfonamide]
> 50 | 666 | 75 | O=S(=O)(C1CCN(C2CC3(COC3)C2)CC1)N(Cc1cn2ccc(-c3nnc(C(F)F)o3)cc2n1)c1cccc(F)c1 [Compound 4617, N-((7-(5-(difluoromethyl)-1,3,4-oxadiazol-2-yl)imidazo[1,2-a]pyridin-2-yl)methyl)-N-(3-fluorophenyl)-1-(2-oxaspiro[3.3]heptan-6-yl)piperidine-4-sulfonamide]
> 50 | 274 | 182 | O=S(=O)(N1CCN(C2CC3(CCC3)C2)CC1)N(Cc1cn2ccc(-c3nnc(C(F)F)o3)cc2n1)c1cccc(F)c1 [Compound 4622, N-((7-(5-(difluoromethyl)-1,3,4-oxadiazol-2-yl)imidazo[1,2-a]pyridin-2-yl)methyl)-N-(3-fluorophenyl)-4-(spiro[3.3]heptan-2-yl)piperazine-1-sulfonamide]
